Measurements published in patent publication US10208056B2, “Condensed tricyclic compounds as protein kinase inhibitors” (FUNDACIÓN DEL SECTOR PÚBLICO ESTATAL CENTRO NACIONAL DE …, priority 2015, dated 2019).
Like-named read-outs stand apart in the source and are kept apart here.

Tests used:
Haspin kinase = Haspin kinase (Homo sapiens (Human), UniProt Q8TF76); test: Haspin kinase assay (ADP-Glo); assay type: biochemical; conditions: ATP 150 μM
Summary of the method: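 Compounds in 1:3 serial dilutions (1% DMSO final) were incubated 60 min at 30 °C with 20 nM recombinant GST-Haspin kinase domain and 150 μM ATP, without substrate, in pH 7.4 HEPES/MgCl2 buffer. ADP formed was read by luciferase luminescence and normalized to uninhibited enzyme to give % inhibition.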

intracellular HASPIN = intracellular HASPIN (Homo sapiens (Human), UniProt Q8TF76); test: Cellular HASPIN inhibition assay, western blot phospho H3T3 in synchronized SW620 cells; assay type: cell-based; conditions: read-out: SW620 PH3(T3) in synchronized cells
Experimental: Compounds can be screened for their ability to inhibit intracellular HASPIN using a western blot assay to detect phosphorylation of the HASPIN substrate H3T3 in synchronized cells. SW620 cells are plated at 200000 cells per well in 6-well plates (Solmeglas 13118) in RPMI media (Sigma-Aldrich R6504) supplemented with 10% foetal bovine serum (Sigma-Aldrich F7524), Penicillin/Streptomycin solution diluted 1:100 (Gibco 15070-063), and fungizone (Gibco, 15290-018), and allowed to adhere overnight at 37° C. in 5% CO2. Cells are then treated 16 h hours with Nocadazole (Sigma-Aldrich M1404) at 250 ng/ml to arrest them in mitosis. Proteasoma inhibitor MG132 (Sigma-Aldrich C2211) is added to a final concentration of […] to keep cells arrested in mitosis. Compounds are then added to the cell media from a final concentration of 10 μM in 10-fold serial dilutions and the cells are incubated at 37° C. in 5% CO2. After 1 hour and 30 minutes of treatment with the compounds, the cells are washed in PBS, lysed adding 100 μl of protein lysis buffer (62.5 mM Tris pH 6.8 al 6.25%, 2% SDS y 10% glycerol) incubation 10 minutes at room temperature and heating at 95° C. 10 min. The protein content of the lysates is determined by DC protein assay (Biorad, Ref. 5000116). The proteins are resolved by SDS-PAGE and transferred to nitrocellulose membrane (VWR International eurolab, Ref. 732-4007). The membranes are incubated overnight at 4° C. with antibodies specific for total H3 (Millipore #07424), phosphothreonine-3 H3 (Cell Signaling Ref. 14269) they are washed and then incubated with IRDye800 conjugated anti-mouse (Pierce/Cultek, 35521) and Alexa Fluor 680 goat anti-rabbit IgG secondary antibodies (Invitrogen, A21076). The bands are visualized and quantified using an Odyssey infrared imaging system (Li-Cor Biosciences). The percentage of phosphorylated H3 vs total H3 in synchronized cells is taken as hundred percent of phosphorylation. The percentage of H3 phosphorylation is finally plotted against concentration for each compound and EC50s for intracellular HASPIN inhibition are calculated using ActivityBase from IDBS.

CDK8/Cyclin C = CDK8/Cyclin C (Homo sapiens (Human), UniProt P49336); test: CDK8/Cyclin C binding assay (LanthaScreen Eu-Kinase Binding Assay); conditions: binding assay
Experimental: The enzyme has been purchase from Invitrogen (PV4402) as a dimer of full-length His-tagged recombinant human proteins.
Assays were performed in 384-well plates. The final read out was generated using an EnVision plate reader (Perkin-Elmer).

MDA-MB-231 = test: In vitro cell proliferation assay (CellTiter-Glo), MDA-MB-231; assay type: cell-based; conditions: Homo sapiens, MDA-MB-231, growth inhibition, read-out: GI50 MDA-MB-231
SW620 = test: In vitro cell proliferation assay (CellTiter-Glo), SW620; assay type: cell-based, human; conditions: Homo sapiens, SW-620, growth inhibition, read-out: GI50 SW620

Chain of CDK8/Cyclin C (P49336 whole entry): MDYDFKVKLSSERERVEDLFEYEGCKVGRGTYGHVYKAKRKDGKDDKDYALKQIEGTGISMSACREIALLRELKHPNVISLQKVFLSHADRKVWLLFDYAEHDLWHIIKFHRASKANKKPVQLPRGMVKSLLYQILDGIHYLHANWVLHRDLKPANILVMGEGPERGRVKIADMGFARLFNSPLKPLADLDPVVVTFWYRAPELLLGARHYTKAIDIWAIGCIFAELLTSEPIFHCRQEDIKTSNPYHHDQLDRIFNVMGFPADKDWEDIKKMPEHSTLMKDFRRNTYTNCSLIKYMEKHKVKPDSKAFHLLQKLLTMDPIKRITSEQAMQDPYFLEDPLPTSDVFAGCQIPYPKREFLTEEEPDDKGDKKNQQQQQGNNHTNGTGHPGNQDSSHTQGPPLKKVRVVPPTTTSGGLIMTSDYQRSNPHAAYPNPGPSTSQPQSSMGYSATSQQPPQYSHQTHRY
Chain of CDK8/Cyclin C (P24863 whole entry partner): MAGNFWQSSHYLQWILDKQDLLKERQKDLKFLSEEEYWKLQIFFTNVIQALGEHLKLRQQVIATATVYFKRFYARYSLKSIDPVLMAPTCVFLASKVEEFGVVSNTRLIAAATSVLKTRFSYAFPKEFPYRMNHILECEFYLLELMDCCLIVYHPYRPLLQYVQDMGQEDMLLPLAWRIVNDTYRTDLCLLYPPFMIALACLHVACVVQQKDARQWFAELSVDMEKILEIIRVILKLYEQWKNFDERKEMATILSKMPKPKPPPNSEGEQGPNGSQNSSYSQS
Chain of Haspin kinase (Q8TF76 484-798): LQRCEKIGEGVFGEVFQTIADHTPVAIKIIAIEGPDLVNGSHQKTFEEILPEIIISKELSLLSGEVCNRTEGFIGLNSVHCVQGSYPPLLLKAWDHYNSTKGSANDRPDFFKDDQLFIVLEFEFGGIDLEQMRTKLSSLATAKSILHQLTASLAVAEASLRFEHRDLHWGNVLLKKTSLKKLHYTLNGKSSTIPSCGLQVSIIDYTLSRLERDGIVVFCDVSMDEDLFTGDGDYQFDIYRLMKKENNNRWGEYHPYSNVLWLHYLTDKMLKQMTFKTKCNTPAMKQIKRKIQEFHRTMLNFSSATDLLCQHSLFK
Chain of intracellular HASPIN (Q8TF76 whole entry): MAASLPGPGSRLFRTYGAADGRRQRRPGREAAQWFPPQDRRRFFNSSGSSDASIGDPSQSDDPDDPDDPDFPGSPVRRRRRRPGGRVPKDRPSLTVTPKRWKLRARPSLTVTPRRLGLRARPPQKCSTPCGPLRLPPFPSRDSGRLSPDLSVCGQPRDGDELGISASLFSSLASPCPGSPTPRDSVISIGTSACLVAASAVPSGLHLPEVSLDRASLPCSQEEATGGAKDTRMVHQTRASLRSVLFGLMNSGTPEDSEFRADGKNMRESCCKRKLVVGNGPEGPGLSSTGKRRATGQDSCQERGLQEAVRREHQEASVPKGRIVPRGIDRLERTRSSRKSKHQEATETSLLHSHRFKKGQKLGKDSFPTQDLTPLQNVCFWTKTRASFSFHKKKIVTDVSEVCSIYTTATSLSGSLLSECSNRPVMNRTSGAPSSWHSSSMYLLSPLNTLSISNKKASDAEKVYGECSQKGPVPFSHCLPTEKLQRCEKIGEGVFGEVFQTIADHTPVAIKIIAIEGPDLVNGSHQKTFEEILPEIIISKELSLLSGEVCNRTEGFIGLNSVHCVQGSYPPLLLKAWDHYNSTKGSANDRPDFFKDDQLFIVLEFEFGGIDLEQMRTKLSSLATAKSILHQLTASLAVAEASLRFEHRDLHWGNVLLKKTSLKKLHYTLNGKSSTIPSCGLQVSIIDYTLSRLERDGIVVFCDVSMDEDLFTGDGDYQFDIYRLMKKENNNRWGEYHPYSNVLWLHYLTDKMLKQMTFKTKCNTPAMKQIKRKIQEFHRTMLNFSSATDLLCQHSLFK

NC(=O)c1cc2c([nH]1)-c1ccncc1O[C@H]2C1CCOCC1 (single isomer, unassigned) [Example 72] was tested. Which IC50 (Haspin kinase) did it give?
The IC50 was 406 nM.

And the EC50 (intracellular HASPIN; semiquantitative)?
The EC50 was 500 to 10000 nM.

And the IC50 (CDK8/Cyclin C)?
The IC50 was 4.46 nM.

What about the GI50 (MDA-MB-231; semiquantitative) of the same compound?
Its GI50 is 10000 to 100000 nM.

And the GI50 (SW620; semiquantitative)?
The GI50 was 10000 to 100000 nM.

With CCn1c(C(N)=O)cc2c1-c1ccncc1OC2(C)C [Example 43] as the compound, how does the IC50 (Haspin kinase) read?
The IC50 was 36.8 nM.

And the EC50 (intracellular HASPIN; quantitative)?
The EC50 was 15 nM.

What about the IC50 (CDK8/Cyclin C) of the same compound?
Its IC50 is 1.41 nM.

What about the GI50 (MDA-MB-231; quantitative) of the same compound?
The GI50 was 3500 nM.

What about the GI50 (SW620; quantitative) of the same compound?
The GI50 was 3390 nM.

For CC1(C)Oc2cnccc2-c2c1cc(C(N)=O)n2CCF [Example 52], which IC50 (Haspin kinase) is on record?
The IC50 was 22.4 nM.

And the EC50 (intracellular HASPIN; semiquantitative)?
The EC50 was under 500 nM.

What about the IC50 (CDK8/Cyclin C) of the same compound?
Its IC50 is 1.41 nM.

What about the GI50 (MDA-MB-231; semiquantitative) of the same compound?
Its GI50 is 1000 to 10000 nM.

And the GI50 (SW620; semiquantitative)?
Its GI50 is 1000 to 10000 nM.

Which IC50 (Haspin kinase) does the source give for CCn1c(C(N)=O)c(-c2ccccc2OC)c2c1-c1ccncc1OC2(C)C [Example 68] here?
The IC50 was 354 nM.

What about the EC50 (intracellular HASPIN; semiquantitative) of the same compound?
The EC50 was under 500 nM.

What about the IC50 (CDK8/Cyclin C) of the same compound?
Its IC50 is 3.23 nM.

What about the GI50 (MDA-MB-231; semiquantitative) of the same compound?
Its GI50 is 10000 to 100000 nM.

And the GI50 (SW620; semiquantitative)?
Its GI50 is 10000 to 100000 nM.
